# Data reported in patent US8178579B2, “Dioxanes and uses thereof” (President and Fellows of Harvard College, priority 2001, dated 2012).
# Target: T1, HDAC6F H216A mutant (Homo sapiens, UniProt Q9UBN7, H216A)
# T1 construct: made in house; host or cells: TAg Jurkat cells, transient transfection, anti-FLAG M2 immunoprecipitation
# T1 sequence (Q9UBN7 1-1215 H216A): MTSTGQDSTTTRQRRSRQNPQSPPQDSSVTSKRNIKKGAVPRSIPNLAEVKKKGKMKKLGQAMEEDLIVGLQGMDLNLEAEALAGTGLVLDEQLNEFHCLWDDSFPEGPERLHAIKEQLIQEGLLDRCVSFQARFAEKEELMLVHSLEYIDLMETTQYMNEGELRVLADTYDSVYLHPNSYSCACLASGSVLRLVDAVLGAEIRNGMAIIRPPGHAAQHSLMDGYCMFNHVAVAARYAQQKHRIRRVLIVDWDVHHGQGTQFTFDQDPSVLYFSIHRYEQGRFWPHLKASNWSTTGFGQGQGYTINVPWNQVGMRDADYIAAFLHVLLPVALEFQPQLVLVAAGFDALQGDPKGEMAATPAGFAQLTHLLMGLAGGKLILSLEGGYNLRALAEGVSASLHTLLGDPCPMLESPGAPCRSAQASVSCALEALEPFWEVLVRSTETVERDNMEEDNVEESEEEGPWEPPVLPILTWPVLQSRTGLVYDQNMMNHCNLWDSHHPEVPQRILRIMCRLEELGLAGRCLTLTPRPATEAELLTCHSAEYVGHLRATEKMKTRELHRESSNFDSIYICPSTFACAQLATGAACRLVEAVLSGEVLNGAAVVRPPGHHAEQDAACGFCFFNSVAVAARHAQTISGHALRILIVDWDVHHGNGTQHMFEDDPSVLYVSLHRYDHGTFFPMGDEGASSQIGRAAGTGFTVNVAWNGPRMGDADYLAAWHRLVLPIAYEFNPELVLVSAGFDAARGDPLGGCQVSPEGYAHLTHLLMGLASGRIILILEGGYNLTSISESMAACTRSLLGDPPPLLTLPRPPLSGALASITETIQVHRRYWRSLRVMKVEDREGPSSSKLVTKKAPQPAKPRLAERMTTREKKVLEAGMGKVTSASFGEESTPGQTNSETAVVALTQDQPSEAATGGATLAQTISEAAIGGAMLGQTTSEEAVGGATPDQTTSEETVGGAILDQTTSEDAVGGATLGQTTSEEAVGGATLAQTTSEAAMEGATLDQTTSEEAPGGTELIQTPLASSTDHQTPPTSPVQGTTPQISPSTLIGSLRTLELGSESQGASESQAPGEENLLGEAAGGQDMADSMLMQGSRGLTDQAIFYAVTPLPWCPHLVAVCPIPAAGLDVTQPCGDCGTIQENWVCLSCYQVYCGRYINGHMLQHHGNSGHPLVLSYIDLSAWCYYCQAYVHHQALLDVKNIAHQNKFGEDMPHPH
# Assay: in vitro deacetylase assay with [3H]-histones, HDAC6F H216A mutant
# Assay type: biochemical
# Conditions: [3H]-labeled histones, n=3
# Procedure: FLAG-tagged HDAC pBJ5 constructs were transiently transfected by electroporation with 5 μg DNA for expression of recombinant proteins (C. M. Grozinger, C. A. Hassig and S. L. Schreiber, Proc. Natl. Acad. Sci. USA, 27, 4868 (1999); and C. A. Hassig et al., Proc. Natl. Acad. Sci. USA 95, 3519 (1998)]. Cells were mock transfected without DNA or with a non-FLAG-tagged pCMV-LacZ construct as a negative control. Forty-eight hours after transfection recombinant proteins were immunoprecipitated using anti-FLAG M2 agarose affinity gel beads as described [C. A. Hassig et al., Proc. Natl. Acad. Sci. USA 95, 3519 (1998)]. Western blotting using anti-acetylated α-tubulin (1:1000) anti-tubulin (1:1000), and anti-acetylated (K9, K14) histone H3 (1:1000) antibodies was performed using standard methods (K. M. Koeller et al., Chemistry & Biology, 10 (5) (2003) pp. 397-410). […]
# [^3H]Acetate-incorporated histones were isolated from butyrate-treated HeLa cells as described [J. Taunton, C. […] Immunoprecipitates were incubated with acetylated histones and HDAC activity determined by scintillation counting as described [J. Taunton, C. […] After centrifugation, the supernatant (diluted to 0.4 μg tubulin) and α-FLAG M2 agarose affinity gel beads were analyzed by western blotting with an anti-FLAG M2 antibody (1:1750) to ensure equal protein levels.
row,SMILES,inhibition of HDAC activity of HDAC6F H216A mutant
1,"CC(/C=C/C(=O)NO)=C\[C@@H](C)C(=O)c1ccc(N(C)C)cc1 [TSA, trichostatin A, reference compound]",only partial inhibited by TSA or tubacin
2,O=C(CCCCCCC(=O)Nc1ccc([C@@H]2OC(c3ccc(CO)cc3)C[C@H](CSc3nc(-c4ccccc4)c(-c4ccccc4)o3)O2)cc1)NO (some centres unmarked) [tubacin],only partial inhibited by TSA or tubacin
